From patent US10941158B2, “Pyrazole ACC inhibitors and uses thereof” (Gilead Apollo, LLC, priority 2015, dated 2021)
≈ marks a conversion by molar mass, not a printed value. Read-outs that look alike come from different tables or passages of the source.

Legend:
human (hACC2) ACC2 = human (hACC2) ACC2 (Homo sapiens, UniProt O00763); test: In vitro Acetyl-CoA Carboxylase (ACC) inhibition assay (ADP-Glo), hACC2; type: biochemical
Description: The detailed procedure is as follows. […] 10 μL ADP glo reagent was added. […] 20 μL kinase detection reagent was added.
“NA” stands for “not assayed.”

C. albicans ATCC 90028 = test: Anti-Fungal (Candida) Activity Assay, broth microtiter MIC; type: cell-based; conditions: read-out: MIC C. albicans ATCC 90028
Method in brief: (§1)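 Test compounds were dissolved in DMSO at 1 mg/mL (stock) and challenged against direct colony suspensions in RPMI 1640 with MOPS under CLSI M27-A3 broth microdilution. Growth was judged by eye relative to drug-free control after 48 h.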

C. krusei ATCC 6258 = test: as above; type: cell-based; conditions: Pichia kudriavzevii, read-out: MIC C. krusei ATCC 6258
Method in brief: as §1

[1] = tested on: C. parapsilosis ATCC 22019; test: as above; type: cell-based; conditions: Lodderomyces parapsilosis, read-out: MIC C. parapsilosis ATCC 22019
Method in brief: as §1

Botrtyis cinerea (Bc) = test: Growth inhibition assay of fungal pathogens; type: cell-based; conditions: 48 h, read-out: Concentration at 90% Inhibition Bc
Method in brief: (§2)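 Liquid-culture assay in which test compounds are applied at three final concentrations (50, 10, 2 ppm or 2, 0.4, 0.08 ppm). Inoculum levels follow 48 h growth curves for each fungus. Growth is monitored by OD600 and by eye, and the 48 h values give % inhibition against DMSO.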

[2] = tested on: Collectotrichum graminicola (Cg); test: Growth inhibition assay of fungal pathogens; type: cell-based; conditions: 48 h, read-out: Concentration at 90% Inhibition Cg
Method in brief: (§3)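 Percent growth inhibition was derived from 48 h OD600 and visual scores relative to 2% DMSO, with blank background subtraction. Fungi were grown from spores in 17% V8 liquid medium, R. solani from 1.5 mm plugs in ¼ PDB, with compound at final 50/10/2 or 2/0.4/0.08 ppm.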

Diplodia maydis (Dm) = test: Growth inhibition assay of fungal pathogens; type: cell-based; conditions: Stenocarpella maydis, 48 h, read-out: Concentration at 90% Inhibition Dm
Method in brief: as §2

[3] = tested on: Fusarium moniliforme (Fm); test: Growth inhibition assay of fungal pathogens; type: cell-based; conditions: for IC90: Fusarium verticillioides, 48 h, read-out: Concentration at 90% Inhibition Fm
Method in brief: as §2

[4] = tested on: Fusarium virguliforme (Fv); test: Growth inhibition assay of fungal pathogens; type: cell-based; conditions: 48 h
Method in brief: as §3

[5] = tested on: Phytophthora capsici (Pc); test: Growth inhibition assay of fungal pathogens; type: cell-based; conditions: for IC90: Phytophthora capsici, read-out: Concentration at 90% Inhibition Pc
Method in brief: as §3

Rhizoctonia solani (Rs) = test: Growth inhibition assay of fungal pathogens; type: cell-based; conditions: 48 h, read-out: Concentration at 90% Inhibition Rs
Method in brief: as §2

Septoria tritici (St) = test: Growth inhibition assay of fungal pathogens; type: cell-based; conditions: for IC90: Zymoseptoria tritici, read-out: Concentration at 90% Inhibition St
Method in brief: as §3

[6] = ATCC90028, 3 replicates, MIC recorded at 48 h
[7] = ATCC6258, 3 replicates, MIC recorded at 48 h
[8] = ATCC22019, 3 replicates, MIC recorded at 48 h
[9] = Table 4a, 48 hours, read-out: Concentration at 90% Inhibition Fv
[10] = Table 4b, 48 hours, read-out: Concentration at 90% Inhibition Fv

human (hACC2) ACC2, sequence (O00763 whole entry): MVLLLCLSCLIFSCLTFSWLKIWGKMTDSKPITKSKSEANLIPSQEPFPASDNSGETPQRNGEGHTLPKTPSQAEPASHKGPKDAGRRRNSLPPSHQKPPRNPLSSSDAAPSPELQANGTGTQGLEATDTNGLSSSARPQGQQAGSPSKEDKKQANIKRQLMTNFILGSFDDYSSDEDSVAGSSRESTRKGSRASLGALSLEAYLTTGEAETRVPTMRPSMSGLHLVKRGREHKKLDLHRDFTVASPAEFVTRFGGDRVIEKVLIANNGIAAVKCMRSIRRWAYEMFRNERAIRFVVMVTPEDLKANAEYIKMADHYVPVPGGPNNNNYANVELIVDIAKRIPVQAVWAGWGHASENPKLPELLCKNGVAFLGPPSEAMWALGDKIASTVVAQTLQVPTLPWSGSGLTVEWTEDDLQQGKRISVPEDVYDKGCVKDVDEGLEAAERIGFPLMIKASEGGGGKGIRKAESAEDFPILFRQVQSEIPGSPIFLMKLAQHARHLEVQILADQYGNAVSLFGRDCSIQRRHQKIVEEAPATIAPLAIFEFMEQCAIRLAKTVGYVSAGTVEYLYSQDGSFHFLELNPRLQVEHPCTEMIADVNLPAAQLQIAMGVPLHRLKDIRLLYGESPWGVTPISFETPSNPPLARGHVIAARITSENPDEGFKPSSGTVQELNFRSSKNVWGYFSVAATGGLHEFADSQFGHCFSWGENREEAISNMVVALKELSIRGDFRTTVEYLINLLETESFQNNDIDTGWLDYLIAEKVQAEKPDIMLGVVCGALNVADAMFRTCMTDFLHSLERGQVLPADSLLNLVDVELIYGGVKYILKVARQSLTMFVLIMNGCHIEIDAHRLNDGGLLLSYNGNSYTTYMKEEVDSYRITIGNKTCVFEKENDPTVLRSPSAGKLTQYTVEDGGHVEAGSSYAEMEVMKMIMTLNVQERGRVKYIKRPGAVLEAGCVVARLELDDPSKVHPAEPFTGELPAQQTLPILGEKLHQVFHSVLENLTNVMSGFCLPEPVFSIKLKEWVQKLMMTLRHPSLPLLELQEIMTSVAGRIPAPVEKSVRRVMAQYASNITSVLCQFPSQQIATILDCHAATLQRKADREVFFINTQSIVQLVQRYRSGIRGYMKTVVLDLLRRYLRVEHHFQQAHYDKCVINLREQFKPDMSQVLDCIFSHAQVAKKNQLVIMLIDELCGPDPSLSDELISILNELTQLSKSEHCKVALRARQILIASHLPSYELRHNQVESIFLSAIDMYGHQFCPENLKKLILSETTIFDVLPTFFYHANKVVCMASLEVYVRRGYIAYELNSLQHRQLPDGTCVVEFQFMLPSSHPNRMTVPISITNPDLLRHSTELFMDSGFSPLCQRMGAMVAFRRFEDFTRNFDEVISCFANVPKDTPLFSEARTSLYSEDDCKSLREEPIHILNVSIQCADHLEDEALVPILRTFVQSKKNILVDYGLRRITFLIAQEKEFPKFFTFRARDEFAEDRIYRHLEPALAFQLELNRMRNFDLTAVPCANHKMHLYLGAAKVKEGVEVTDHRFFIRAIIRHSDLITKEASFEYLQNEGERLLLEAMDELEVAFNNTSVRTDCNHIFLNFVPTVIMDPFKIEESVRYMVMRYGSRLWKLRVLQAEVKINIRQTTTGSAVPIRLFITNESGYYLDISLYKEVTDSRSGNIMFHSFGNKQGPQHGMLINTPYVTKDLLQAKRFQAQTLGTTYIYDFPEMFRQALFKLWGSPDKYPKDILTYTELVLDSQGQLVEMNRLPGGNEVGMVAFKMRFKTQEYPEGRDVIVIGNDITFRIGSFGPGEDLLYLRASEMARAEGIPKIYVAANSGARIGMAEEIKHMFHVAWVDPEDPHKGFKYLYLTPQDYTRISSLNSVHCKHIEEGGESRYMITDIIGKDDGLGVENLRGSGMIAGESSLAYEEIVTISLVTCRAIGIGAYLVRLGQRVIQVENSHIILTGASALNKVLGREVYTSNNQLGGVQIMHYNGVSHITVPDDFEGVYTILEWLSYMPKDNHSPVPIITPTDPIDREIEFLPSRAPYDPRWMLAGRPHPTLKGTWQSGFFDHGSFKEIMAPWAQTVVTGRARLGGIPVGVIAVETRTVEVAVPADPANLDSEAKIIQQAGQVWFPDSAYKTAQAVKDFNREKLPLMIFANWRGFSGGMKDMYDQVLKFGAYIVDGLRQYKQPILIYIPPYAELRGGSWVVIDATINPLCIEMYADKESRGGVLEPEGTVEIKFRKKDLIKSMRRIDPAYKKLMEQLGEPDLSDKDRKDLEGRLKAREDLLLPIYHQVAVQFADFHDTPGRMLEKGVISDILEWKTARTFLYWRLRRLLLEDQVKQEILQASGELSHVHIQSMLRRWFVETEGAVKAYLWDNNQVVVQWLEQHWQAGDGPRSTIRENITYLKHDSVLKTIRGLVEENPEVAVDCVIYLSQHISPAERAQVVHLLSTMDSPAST

COc1ccccc1[C@H](Cn1c(=O)n(C(C)(C)C(=O)N2CCCC2)c(=O)c2c(C)c(-n3cccn3)sc21)OCC(C)C [Compound I-22, (R)-1-(2-isobutoxy-2-(2-methoxyphenyl)ethyl)-5-methyl-3-(2-methyl-1-oxo-1-(pyrrolidin-1-yl)propan-2-yl)-6-(1H-pyrazol-1-yl)thieno[2,3-d]pyrimidine-2,4(1H,3H)-dione]
IC50 (human (hACC2) ACC2): 0.003 to 0.01 µM | MIC (C. albicans ATCC 90028; [6]): 0.25 to 1 µg/mL (≈ 0.421 to 1.68 µM) | MIC (C. krusei ATCC 6258; [7]): 0.25 to 1 µg/mL (≈ 0.421 to 1.68 µM) | MIC [1, 8]: 1.1 to 2 µg/mL (≈ 1.85 to 3.37 µM) | IC90 (Botrtyis cinerea (Bc); Table 4a): 2 µg/mL (≈ 3.37 µM) | IC90 (Botrtyis cinerea (Bc); Table 4b): 2 µg/mL (≈ 3.37 µM) | IC90 ([2]; Table 4a): 2 µg/mL (≈ 3.37 µM) | IC90 ([2]; Table 4b): 2 µg/mL (≈ 3.37 µM) | IC90 (Diplodia maydis (Dm); Table 4a): 2 µg/mL (≈ 3.37 µM) | IC90 (Diplodia maydis (Dm); Table 4b): 2 µg/mL (≈ 3.37 µM) | IC90 ([3]; Table 4a, 48 hours): 2 µg/mL (≈ 3.37 µM) | IC90 ([3]; Table 4b, 48 hours): 0.4 µg/mL (≈ 0.674 µM) | IC90 [4, 9]: > 50 µg/mL | IC90 [4, 10]: 10 µg/mL (≈ 16.8 µM) | IC90 ([5]; Table 4a, 48 hours): > 50 µg/mL | Concentration at 90% Inhibition Pc ([5]; Table 4b, 48 hours): D (“D” provided a compound concentration of >50 ppm at 90% inhibition of fungal pathogens) | IC90 (Rhizoctonia solani (Rs); Table 4a): 2 µg/mL (≈ 3.37 µM) | IC90 (Rhizoctonia solani (Rs); Table 4b): 2 µg/mL (≈ 3.37 µM) | Concentration at 90% Inhibition St (Septoria tritici (St); Table 4b, 48 hours): D (“D” provided a compound concentration of >50 ppm at 90% inhibition of fungal pathogens) | IC90 (Septoria tritici (St); Table 4a, 48 hours): > 50 µg/mL

COc1ccccc1[C@H](Cn1c(=O)n(C(C)(C)C(=O)N2CCCCC2)c(=O)c2c(C)c(-n3cccn3)sc21)OCC(C)C [Compound I-23, (R)-1-(2-isobutoxy-2-(2-methoxyphenyl)ethyl)-5-methyl-3-(2-methyl-1-oxo-1-(piperidin-1-yl)propan-2-yl)-6-(1H-pyrazol-1-yl)thieno[2,3-d]pyrimidine-2,4(1H,3H)-dione]
IC50 (human (hACC2) ACC2): 0.01 to 0.04 µM | MIC (C. albicans ATCC 90028; ATCC90028, 48 h): 0.25 to 1 µg/mL (≈ 0.411 to 1.65 µM) | MIC (C. krusei ATCC 6258; ATCC6258, 48 h): 0.25 to 1 µg/mL (≈ 0.411 to 1.65 µM) | MIC ([1]; ATCC22019, 48 h): 1.1 to 2 µg/mL (≈ 1.81 to 3.29 µM) | IC90 (Botrtyis cinerea (Bc); Table 4a): 2 µg/mL (≈ 3.29 µM) | IC90 (Botrtyis cinerea (Bc); Table 4b): 2 µg/mL (≈ 3.29 µM) | IC90 ([2]; Table 4a): > 50 µg/mL | IC90 ([2]; Table 4b): 10 µg/mL (≈ 16.5 µM) | IC90 (Diplodia maydis (Dm); Table 4a): 10 µg/mL (≈ 16.5 µM) | IC90 (Diplodia maydis (Dm); Table 4b): 2 µg/mL (≈ 3.29 µM) | IC90 [3]: 0.4 µg/mL (≈ 0.658 µM) | Concentration at 90% Inhibition Fm ([3]; Table 4b, 48 hours): A (“A” provided a compound concentration of 0.4 ppm at 90% inhibition of fungal pathogens) | IC90 ([4]; read-out: Concentration at 90% Inhibition Fv, Table 4a, 48 hours): > 50 µg/mL | IC90 ([4]; read-out: Concentration at 90% Inhibition Fv, Table 4b, 48 hours): > 50 µg/mL | IC90 ([5]; 48 h, Table 4a): > 50 µg/mL | IC90 ([5]; 48 h, Table 4b): > 50 µg/mL | IC90 (Rhizoctonia solani (Rs); Table 4a): > 50 µg/mL | IC90 (Rhizoctonia solani (Rs); Table 4b): > 50 µg/mL | IC90 (Septoria tritici (St); 48 h, Table 4a): > 50 µg/mL | IC90 (Septoria tritici (St); 48 h, Table 4b): > 50 µg/mL

COc1ccc(F)cc1[C@H](Cn1c(=O)n(C(C)(C)C(N)=O)c(=O)c2c(C)c(-n3cccn3)sc21)OC1CCC(=O)CC1 [Compound I-25, (R)-2-(1-(2-(5-fluoro-2-methoxyphenyl)-2-((4-oxocyclo-hexyl)oxy)ethyl)-5-methyl-2,4-dioxo-6-(1H-pyrazol-1-yl)-1,4-dihydro-thieno[2,3-d]pyrimidin-3(2H)-yl)-2-methylpropanamide]
IC50 (human (hACC2) ACC2): 0.003 to 0.01 µM | MIC (C. albicans ATCC 90028; [6]): 1.1 to 2 µg/mL (≈ 1.84 to 3.35 µM) | MIC (C. krusei ATCC 6258; [7]): 0.25 to 1 µg/mL (≈ 0.418 to 1.67 µM) | MIC [1, 8]: 1.1 to 2 µg/mL (≈ 1.84 to 3.35 µM) | IC90 (Botrtyis cinerea (Bc); Table 4a): > 50 µg/mL | IC90 (Botrtyis cinerea (Bc); Table 4b): 10 µg/mL (≈ 16.7 µM) | IC90 ([2]; Table 4a): > 50 µg/mL | IC90 ([2]; Table 4b): > 50 µg/mL | IC90 (Diplodia maydis (Dm); Table 4a): > 50 µg/mL | IC90 (Diplodia maydis (Dm); Table 4b): > 50 µg/mL | IC90 ([3]; Table 4a, 48 hours): 10 µg/mL (≈ 16.7 µM) | IC90 ([3]; Table 4b, 48 hours): 2 µg/mL (≈ 3.35 µM) | IC90 [4, 9]: > 50 µg/mL | IC90 [4, 10]: > 50 µg/mL | IC90 ([5]; Table 4a, 48 hours): > 50 µg/mL | Concentration at 90% Inhibition Pc ([5]; Table 4b, 48 hours): D (“D” provided a compound concentration of >50 ppm at 90% inhibition of fungal pathogens) | IC90 (Rhizoctonia solani (Rs); Table 4a): > 50 µg/mL | IC90 (Rhizoctonia solani (Rs); Table 4b): > 50 µg/mL | Concentration at 90% Inhibition St (Septoria tritici (St); Table 4b, 48 hours): D (“D” provided a compound concentration of >50 ppm at 90% inhibition of fungal pathogens) | IC90 (Septoria tritici (St); Table 4a, 48 hours): > 50 µg/mL

COc1ccc(F)cc1[C@H](Cn1c(=O)n(C(C)(C)C(=O)N2CCCC2)c(=O)c2c(C)c(-n3cccn3)sc21)OC1CCC(=O)CC1 [Compound I-27, (R)-1-(2-(5-fluoro-2-methoxyphenyl)-2-((4-oxocyclohexyl)oxy)ethyl)-5-methyl-3-(2-methyl-1-oxo-1-(pyrrolidin-1-yl)propan-2-yl)-6-(1H-pyrazol-1-yl)thieno[2,3-d]pyrimidine-2,4(1H,3H)-dione]
IC50 (human (hACC2) ACC2): 0.01 to 0.04 µM | MIC (C. albicans ATCC 90028; [6]): 1.1 to 2 µg/mL (≈ 1.69 to 3.07 µM) | MIC (C. krusei ATCC 6258; [7]): 1.1 to 2 µg/mL (≈ 1.69 to 3.07 µM) | MIC [1, 8]: 1.1 to 2 µg/mL (≈ 1.69 to 3.07 µM) | IC90 (Botrtyis cinerea (Bc); Table 4a): 2 µg/mL (≈ 3.07 µM) | IC90 (Botrtyis cinerea (Bc); Table 4b): 2 µg/mL (≈ 3.07 µM) | IC90 ([2]; Table 4a): 10 µg/mL (≈ 15.3 µM) | IC90 ([2]; Table 4b): 2 µg/mL (≈ 3.07 µM) | IC90 (Diplodia maydis (Dm); Table 4a): > 50 µg/mL | IC90 (Diplodia maydis (Dm); Table 4b): 10 µg/mL (≈ 15.3 µM) | IC90 ([3]; Table 4a, 48 hours): 0.4 µg/mL (≈ 0.614 µM) | IC90 ([3]; Table 4b, 48 hours): 0.4 µg/mL (≈ 0.614 µM) | IC90 [4, 9]: 10 µg/mL (≈ 15.3 µM) | IC90 [4, 10]: 2 µg/mL (≈ 3.07 µM) | IC90 ([5]; Table 4a, 48 hours): > 50 µg/mL | Concentration at 90% Inhibition Pc ([5]; Table 4b, 48 hours): D (“D” provided a compound concentration of >50 ppm at 90% inhibition of fungal pathogens) | IC90 (Rhizoctonia solani (Rs); Table 4a): 2 µg/mL (≈ 3.07 µM) | IC90 (Rhizoctonia solani (Rs); Table 4b): 2 µg/mL (≈ 3.07 µM) | Concentration at 90% Inhibition St (Septoria tritici (St); Table 4b, 48 hours): D (“D” provided a compound concentration of >50 ppm at 90% inhibition of fungal pathogens) | IC90 (Septoria tritici (St); Table 4a, 48 hours): > 50 µg/mL
